{
  "source": "patent US20250092014A1",
  "about": "“COMPOUNDS AND METHODS OF ACTIVATING LIPOPROTEIN LIPASE” (Metrea Biosciences, Inc., priority 2021, published 2025)",
  "data": [
    {"biological_target": "T1, LPL:sGPIHBP1 complex (Homo sapiens, UniProt P06858)", "T1 sequence (P06858 28-475)": "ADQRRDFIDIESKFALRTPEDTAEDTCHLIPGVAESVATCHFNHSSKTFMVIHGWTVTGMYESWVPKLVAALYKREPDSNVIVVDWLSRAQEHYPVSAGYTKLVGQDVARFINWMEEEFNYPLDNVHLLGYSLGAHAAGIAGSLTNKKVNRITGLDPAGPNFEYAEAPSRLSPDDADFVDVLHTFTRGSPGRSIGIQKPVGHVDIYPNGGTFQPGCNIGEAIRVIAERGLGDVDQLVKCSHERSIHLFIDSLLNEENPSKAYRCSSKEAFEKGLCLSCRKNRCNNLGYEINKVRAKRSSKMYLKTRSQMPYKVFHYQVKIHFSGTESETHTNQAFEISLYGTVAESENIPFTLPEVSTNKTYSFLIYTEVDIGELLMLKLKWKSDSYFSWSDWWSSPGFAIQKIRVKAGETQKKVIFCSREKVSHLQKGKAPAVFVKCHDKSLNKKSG", "T1 sequence (Q8IV16 21-151 partner limits assumed)": "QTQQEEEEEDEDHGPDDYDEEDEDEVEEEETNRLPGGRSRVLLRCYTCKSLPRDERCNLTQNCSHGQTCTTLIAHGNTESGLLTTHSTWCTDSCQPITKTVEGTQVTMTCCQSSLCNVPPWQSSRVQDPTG", "experiment": "RB assay (LPL:sGPIHBP1 pre-incubated with ANGPTL4, RB substrate)", "type": "biochemical", "conditions": "read-out: RB qAC50", "protocol": "The assay was performed in black 1536-well plates using purified proteins. To identify compounds that stimulate LPL activity either by directly activating LPL or by inhibiting the antagonist ANGPTL4, the LPL:sGPIHBP1 complex was pre-incubated with ANGPTL4 to decrease LPL activity by 80%. After a 60 min pre-incubation, the reaction was started by adding the RB substrate. 30 min after RB addition, the enzymatic reaction was stopped using SDS. Fluorescence intensity was measured 2 h after stopping the reaction.\n20 or 40 nl of compound solution in 100% DMSO were placed in test plate. Then was added LPL:sGPIHBP1 to all wells (diluted in assay buffer to 5 nM; 2 μl/well). This was followed by an addition of ANGPTL4 to compounds and neutral controls (diluted in assay buffer to 20 nM; 1 μl/well). A buffer solution was added to the stimulator control (1 μl/well). The plates were then centrifuged and pre-incubated for 60 min at RT. The reaction was started by adding substrate to all wells (diluted in assay buffer to 40 μM, 1 μl/well). The plated were centrifuged (800 rpm for 1 min) and incubated 30 min at RT (=reaction time). The reaction was stopped by adding SDS to all wells (diluted in water to 2.5%, 2 μl/well); incubated 2 h at RT. The fluorescence intensity (ex 540 nm/em 590 nm) was measured on a Pherastar (BMG) using 5 flashes.", "units": {"EC50": "µM"}, "values": [
      {"smiles": "O=C(O)Cc1cc(F)ccc1NC(=O)c1ccc(N2CCCCC2)c(C(=O)Nc2nn(CC(F)(F)F)c3ccccc23)c1", "note": "[Compound 41, 2-(5-fluoro-2-(4-(piperidin-1-yl)-3-((1-(2,2,2-trifluoroethyl)-1H-indazol-3-yl)carbamoyl)benzamido)phenyl)acetic acid]", "EC50": 4.8},
      {"smiles": "O=C(O)Cc1cc(F)ccc1NC(=O)c1ccc(N2CCCCC2)c(NC(=O)c2nn(CC(F)(F)F)cc2-c2ccccc2)c1", "note": "[Compound 115, 2-(5-fluoro-2-(3-(4-phenyl-1-(2,2,2-trifluoroethyl)-1H-pyrazole-3-carboxamido)-4-(piperidin-1-yl)benzamido)phenyl)acetic acid]", "EC50": "> 7.1"},
      {"smiles": "O=C(O)Cc1cc(F)ccc1NC(=O)c1ccc(N2CCCCC2)c(NC(=O)c2nn(CC(F)(F)F)c3cccnc23)c1", "note": "[Compound 111, 2-(5-fluoro-2-(4-(piperidin-1-yl)-3-(1-(2,2,2-trifluoroethyl)-1H-pyrazolo[4,3-b]pyridine-3-carboxamido)benzamido)phenyl)acetic acid]", "EC50": 23},
      {"smiles": "O=C(O)Cc1cc(F)ccc1NC(=O)c1ccc(N2CCC(F)(F)CC2)c(NC(=O)c2nn(CC(F)(F)F)c3ccccc23)c1", "note": "[Example 40]", "EC50": 3.5},
      {"smiles": "O=C(O)Cc1cc(F)ccc1NC(=O)c1ccc(N2CCCCC2)c(NC(=O)c2nn(C[C@@H]3CCCO3)c3ccccc23)c1", "note": "[Compound 136, (S)-2-(5-fluoro-2-(4-(piperidin-1-yl)-3-(1-((tetrahydrofuran-2-yl)methyl)-1H-indazole-3-carboxamido)benzamido)phenyl)acetic acid]", "EC50": "> 25"},
      {"smiles": "Cc1ccc2c(c1)c(C(=O)Nc1cc(C(=O)Nc3ccc(F)cc3CC(=O)O)ccc1N1CCCCC1)nn2CC(F)(F)F", "note": "[Compound 142, 2-(5-fluoro-2-(3-(5-methyl-1-(2,2,2-trifluoroethyl)-1H-indazole-3-carboxamido)-4-(piperidin-1-yl)benzamido)phenyl)acetic acid]", "EC50": "> 7.1"},
      {"smiles": "O=C(O)Cc1cc(F)ccc1NC(=O)c1ccc(N2CCCCC2)c(NC(=O)c2nn(CCO)c3ccccc23)c1", "note": "[Compound 99, 2-(5-fluoro-2-(3-(1-(2-hydroxyethyl)-1H-indazole-3-carboxamido)-4-(piperidin-1-yl)benzamido)phenyl)acetic acid]", "EC50": "> 25"},
      {"smiles": "O=C(O)Cc1cc(F)ccc1NC(=O)c1ccc(N2CCCCC2)c(NC(=O)c2nn(CC3CCNCC3)c3ccccc23)c1", "note": "[Compound 103, 2-(5-fluoro-2-(4-(piperidin-1-yl)-3-(1-(piperidin-4-ylmethyl)-1H-indazole-3-carboxamido)benzamido)phenyl)acetic acid]", "EC50": "> 25"},
      {"smiles": "O=C(O)Cc1cc(F)ccc1NC(=O)c1ccc(N2CCCCC2)c(NC(=O)c2nn(CC(F)(F)F)c3ccncc23)c1", "note": "[Compound 107, 2-(5-fluoro-2-(4-(piperidin-1-yl)-3-(1-(2,2,2-trifluoroethyl)-1H-pyrazolo[4,3-c]pyridine-3-carboxamido)benzamido)phenyl)acetic acid]", "EC50": "> 7.1"},
      {"smiles": "O=C(O)Cc1cc(F)ccc1NC(=O)c1ccc(N2CCCCC2)c(NC(=O)c2nn(CCN3CCCC3)c3ccccc23)c1", "note": "[Compound 101, 2-(5-fluoro-2-(4-(piperidin-1-yl)-3-(1-(2-(pyrrolidin-1-yl)ethyl)-1H-indazole-3-carboxamido)benzamido)phenyl)acetic acid]", "EC50": "> 25"},
      {"smiles": "O=C(O)Cc1c(F)cccc1NC(=O)c1ccc(N2CCCCC2)c(NC(=O)c2nn(CC(F)(F)F)c3ccccc23)c1", "note": "[Compound 37, 2-(2-fluoro-6-(4-(piperidin-1-yl)-3-(1-(2,2,2-trifluoroethyl)-1H-indazole-3-carboxamido)benzamido)phenyl)acetic acid]", "EC50": 5},
      {"smiles": "CC#CCn1nc(C(=O)Nc2cc(C(=O)Nc3ccc(F)cc3CC(=O)O)ccc2N2CCCCC2)c2ccccc21", "note": "[Compound 123, 2-(2-(3-(1-(but-2-yn-1-yl)-1H-indazole-3-carboxamido)-4-(piperidin-1-yl)benzamido)-5-fluorophenyl)acetic acid]", "EC50": 3.1},
      {"smiles": "COCCn1nc(C(=O)Nc2cc(C(=O)Nc3ccc(F)cc3CC(=O)O)ccc2N2CCCCC2)c2ccccc21", "note": "[Compound 105, 2-(5-fluoro-2-(3-(1-(2-methoxyethyl)-1H-indazole-3-carboxamido)-4-(piperidin-1-yl)benzamido)phenyl)acetic acid]", "EC50": 14},
      {"smiles": "O=C(O)Cc1cc(F)ccc1NC(=O)c1ccc(N2CCCCC2)c(NC(=O)c2nn(CC3CCCO3)c3ccccc23)c1", "note": "(stereo not drawn) [Compound 119, 2-(5-fluoro-2-(4-(piperidin-1-yl)-3-(1-((tetrahydrofuran-2-yl)methyl)-1H-indazole-3-carboxamido)benzamido)phenyl)acetic acid]", "EC50": 6.6},
      {"smiles": "CC(n1nc(C(=O)Nc2cc(C(=O)Nc3ccc(F)cc3CC(=O)O)ccc2N2CCCCC2)c2ccccc21)C(F)(F)F", "note": "(stereo not drawn) [Compound 146, 2-(5-fluoro-2-(4-(piperidin-1-yl)-3-(1-(1,1,1-trifluoropropan-2-yl)-1H-indazole-3-carboxamido)benzamido)phenyl)acetic acid]", "EC50": "> 7.1"},
      {"smiles": "O=C(O)Cc1cc(C(F)(F)F)ccc1NC(=O)c1ccc(N2CCCCC2)c(NC(=O)c2nn(CC(F)(F)F)c3ccccc23)c1", "note": "[Example 22]", "EC50": 4.3},
      {"smiles": "N#CCn1nc(C(=O)Nc2cc(C(=O)Nc3ccc(F)cc3CC(=O)O)ccc2N2CCCCC2)c2ccccc21", "note": "[Compound 102, 2-(2-(3-(1-(cyanomethyl)-1H-indazole-3-carboxamido)-4-(piperidin-1-yl)benzamido)-5-fluorophenyl)acetic acid]", "EC50": 5.1},
      {"smiles": "O=C(O)Cc1cc(F)ccc1NC(=O)c1ccc(N2CCCCC2)c(NC(=O)c2cc(-c3ccccc3)n(CC(F)(F)F)n2)c1", "note": "[Compound 116, 2-(5-fluoro-2-(3-(5-phenyl-1-(2,2,2-trifluoroethyl)-1H-pyrazole-3-carboxamido)-4-(piperidin-1-yl)benzamido)phenyl)acetic acid]", "EC50": 23},
      {"smiles": "O=C(O)Cc1cc(F)ccc1NC(=O)c1ccc(N2CCCCC2)c(NC(=O)c2cn3ccccc3n2)c1", "note": "[Compound 109, 2-(5-fluoro-2-(3-(imidazo[1,2-a]pyridine-2-carboxamido)-4-(piperidin-1-yl)benzamido)phenyl)acetic acid]", "EC50": "> 25"},
      {"smiles": "O=C(O)Cc1cc(Cl)ccc1NC(=O)c1ccc(N2CCCCC2)c(NC(=O)c2nn(CC(F)(F)F)c3ccccc23)c1", "note": "[Compound 23, 2-(5-chloro-2-(4-(piperidin-1-yl)-3-(1-(2,2,2-trifluoroethyl)-1H-indazole-3-carboxamido)benzamido)phenyl)acetic acid]", "EC50": 4.6},
      {"smiles": "O=C(O)Cc1cc(F)ccc1NC(=O)c1ccc(N2CCCCC2)c(NC(=O)c2nn(CC(F)F)c3ccccc23)c1", "note": "[Compound 96, 2-(2-(3-(1-(2,2-difluoroethyl)-1H-indazole-3-carboxamido)-4-(piperidin-1-yl)benzamido)-5-fluorophenyl)acetic acid]", "EC50": 4.7},
      {"smiles": "O=C(O)Cc1cc(F)ccc1NC(=O)c1ccc(N2CCC(O)CC2)c(NC(=O)c2nn(CC(F)(F)F)c3ccccc23)c1", "note": "[Example 75]", "EC50": "> 25"},
      {"smiles": "O=C(O)Cc1cccc(F)c1NC(=O)c1ccc(N2CCCCC2)c(NC(=O)c2nn(CC(F)(F)F)c3ccccc23)c1", "note": "[Compound 24, 2-(3-fluoro-2-(4-(piperidin-1-yl)-3-(1-(2,2,2-trifluoroethyl)-1H-indazole-3-carboxamido)benzamido)phenyl)acetic acid]", "EC50": 3.2},
      {"smiles": "N#CC1CCN(c2ccc(C(=O)Nc3ccc(F)cc3CC(=O)O)cc2NC(=O)c2nn(CC(F)(F)F)c3ccccc23)CC1", "note": "[Example 48]", "EC50": "> 25"},
      {"smiles": "O=C(O)Cc1cc(F)ccc1NC(=O)c1cc(NC(=O)c2nn(CC(F)(F)F)c3ccccc23)c(N2CCCCC2)cn1", "note": "[Compound 43, 2-(5-fluoro-2-(5-(piperidin-1-yl)-4-(1-(2,2,2-trifluoroethyl)-1H-indazole-3-carboxamido)picolinamido)phenyl)acetic acid]", "EC50": "> 7.1"},
      {"smiles": "CC1CCCC(C)N1c1ccc(C(=O)Nc2ccc(F)cc2CC(=O)O)cc1NC(=O)c1nn(CC(F)(F)F)c2ccccc12", "note": "(stereo not drawn) [Example 68]", "EC50": "> 7.1"},
      {"smiles": "CC(C1CCOCC1)n1nc(C(=O)Nc2cc(C(=O)Nc3ccc(F)cc3CC(=O)O)ccc2N2CCCCC2)c2ccccc21", "note": "(stereo not drawn) [Compound 148, 2-(5-fluoro-2-(4-(piperidin-1-yl)-3-(1-(1-(tetrahydro-2H-pyran-4-yl)ethyl)-1H-indazole-3-carboxamido)benzamido)phenyl)acetic acid]", "EC50": "> 25"}
    ]}
  ]
}
